EC50 data for 32 compounds are collected here from patent US8697727B2, “N-substituted-heterocycloalkyloxybenzamide compounds and methods of use” (Rigel Pharmaceuticals, Inc., priority 2006, dated 2014).

pEC50: −log10 of the molar value.

The assay relates to AMPK. Briefly: AMPK activation, enzyme-linked immunosorbent assay. It counts as cell-based. The gist of the method:
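Each compound's EC50 for AMPK activation was the endpoint. In a cell-based assay, AMPK activity was read out as the relative concentration of phosphorylated acetyl-CoA carboxylase, a product of AMPK, measured by enzyme-linked immunosorbent assay. Values fell into the ranges less than 1 μM, 1-10 μM, 10-20 μM, 20-50 μM, 50-100 μM, and >100 μM.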
By pEC50 is commonly meant the negative decadic logarithm of the EC50, by convention in mol/L. The low end stands for a large EC50, the high end for a small EC50. `O=C(NC1CCN(Cc2ccccc2)CC1)c1cccc(OC2CCN(Cc3ccc(C(F)(F)F)cc3)CC2)c1` [Compound 52, N-(1-benzylpiperidin-4-yl)-3-(1-(4-(trifluoromethyl)benzyl)piperidin-4-yloxy)benzamide] gave a pEC50 of 5.00 to 6.00.
As for `O=C(NC1CCN(Cc2ccccc2)CC1)c1ccc(OC2CCN(c3cccs3)CC2)c(Cl)c1` [Compound 10, N-(1-benzylpiperidin-4-yl)-3-chloro-4-(1-(thiophen-2-yl)piperidin-4-yloxy)benzamide], the negative logarithm of the EC50 (pEC50) is 5.00 to 6.00.
In turn, `O=C(NC1CCN(Cc2ccccc2)CC1)c1ccc(OC2CCN(Cc3ccccn3)CC2)c(F)c1` [Compound 39, N-(1-benzylpiperidin-4-yl)-3-fluoro-4-(1-(pyridin-2-ylmethyl)piperidin-4-yloxy)benzamide] gave a pEC50 of 5.00 to 6.00.
The value for `O=C(NC1CCN(Cc2ccccc2)CC1)c1ccc(OC2CCN(Cc3ccccc3)CC2)c(Cl)c1` [Compound 14, N-(1-benzylpiperidin-4-yl)-4-(1-benzylpiperidin-4-yloxy)-3-chlorobenzamide] was greater than 6.00; that for `O=C(c1ccc(OC2CCN(Cc3ccccc3)CC2)cc1)N1CCN(Cc2ccccn2)CC1` [Compound 105, (4-(1-benzylpiperidin-4-yloxy)phenyl)(4-(pyridin-2-ylmethyl)piperazin-1-yl)methanone] was 4.70 to 5.00; that for `N#Cc1ccc(N2CCC(Oc3cccc(C(=O)NC4CCN(Cc5ccccc5)CC4)c3)CC2)cc1` [Compound 48, N-(1-benzylpiperidin-4-yl)-3-(1-(4-cyanophenyl)piperidin-4-yloxy)benzamide] was greater than 6.00.
Take `O=C(NC1CCN(Cc2ccc(Cl)cc2)CC1)c1ccc(OC2CCN(Cc3ccc(Cl)cc3)CC2)c(F)c1` [Compound 72, N-(1-(4-chlorobenzyl)piperidin-4-yl)-4-(1-(4-chlorobenzyl)piperidin-4-yloxy)-3-fluorobenzamide]: the pEC50 was greater than 6.00.
Compound `N#Cc1ccc(N2CCC(Oc3ccc(C(=O)NC4CCN(Cc5ccncc5)CC4)cc3F)CC2)cc1` [Compound 44, 4-(1-(4-cyanophenyl)piperidin-4-yloxy)-3-fluoro-N-(1-(pyridin-4-ylmethyl)piperidin-4-yl)benzamide] had a pEC50 greater than 6.00.
The result for `CC(C)(C)OC(=O)N1CCC(Oc2ccc(C(=O)NC3CCN(Cc4ccccc4)CC3)cc2Cl)CC1` [Compound 90, tert-butyl 4-(4-(1-benzylpiperidin-4-ylcarbamoyl)-2-chlorophenoxy)piperidine-1-carboxylate] reads 5.00 to 6.00; that for `O=C(NC1CCN(Cc2ccccc2)CC1)c1ccc(OC2CCN(Cc3ccc(Cl)c(Cl)c3)CC2)c(F)c1` [Compound 82, N-(1-benzylpiperidin-4-yl)-4-(1-(3,4-dichlorobenzyl)piperidin-4-yloxy)-3-fluorobenzamide], greater than 6.00.
The result for `O=C(NC1CCN(Cc2ccccc2)CC1)c1ccc(OC2CCN(c3ccco3)CC2)c(Cl)c1` [Compound 11, N-(1-benzylpiperidin-4-yl)-3-chloro-4-(1-(furan-2-yl)piperidin-4-yloxy)benzamide] reads 5.00 to 6.00; that for `COc1cc(C(=O)NC2CCN(Cc3ccccc3)CC2)ccc1OC1CCN(c2ccco2)CC1` [Compound 12, N-(1-benzylpiperidin-4-yl)-3-methoxy-4-(1-(furan-2-yl)piperidin-4-yloxy)benzamide], 5.00 to 6.00.
The value for `O=C(NC1CCN(Cc2ccccc2)CC1)c1ccc(OC2CCN(Cc3ccncc3)CC2)c(Cl)c1` [Compound 6, N-(1-benzylpiperidin-4-yl)-3-chloro-4-(1-(pyridin-4-ylmethyl)piperidin-4-yloxy)benzamide] was greater than 6.00; that for `O=C(NC1CCN(Cc2ccccc2)CC1)c1cc(Cl)c(OC2CCN(Cc3cccc(C(F)(F)F)c3)CC2)c(Cl)c1` [Compound 62, N-(1-benzylpiperidin-4-yl)-3,5-dichloro-4-(1-(3-(trifluoromethyl)benzyl)piperidin-4-yloxy)benzamide] was greater than 6.00; that for `CC(C)(C)c1ccc(CN2CCC(Oc3ccc(C(=O)NC4CCN(Cc5ccccc5)CC4)cc3Cl)CC2)cc1` [Compound 16, N-(1-benzylpiperidin-4-yl)-4-(1-(4-tert-butylbenzyl)piperidin-4-yloxy)-3-chlorobenzamide] was greater than 6.00.
In the case of `O=C(NC1CCN(Cc2ccccc2)CC1)c1ccc(OC2CCN(Cc3cccc(C(F)(F)F)c3)CC2)c(F)c1` [Compound 59, N-(1-benzylpiperidin-4-yl)-3-fluoro-4-(1-(3-(trifluoromethyl)benzyl)piperidin-4-yloxy)benzamide], the pEC50 is greater than 6.00.
For the compound `O=C(NC1CCN(Cc2ccccc2)CC1)c1ccc(OC2CCN(Cc3ccc(F)c(F)c3)CC2)c(F)c1` [Compound 69, N-(1-benzylpiperidin-4-yl)-4-(1-(3,4-difluorobenzyl)piperidin-4-yloxy)-3-fluorobenzamide], the pEC50 is greater than 6.00.
The result for `O=C(NC1CCN(Cc2ccccc2)CC1)c1cccc(OC2CCN(c3ccccn3)CC2)c1` [Compound 86, N-(1-benzylpiperidin-4-yl)-3-(1-(pyridin-2-yl)piperidin-4-yloxy)benzamide] reads greater than 6.00.
The result for `O=C(NC1CCN(Cc2ccccc2)CC1)c1ccc(OC2CCN(Cc3ccc4c(c3)OCCO4)CC2)c(Cl)c1` [Compound 15, N-(1-benzylpiperidin-4-yl)-3-chloro-4-(1-((2,3-dihydrobenzo[b][1,4]dioxin-6-yl)methyl)piperidin-4-yloxy)benzamide] reads greater than 6.00; that for `N#Cc1ccc(CN2CCC(Oc3ccc(C(=O)NC4CCN(Cc5ccncc5)CC4)cc3)CC2)cc1` [Compound 83, 4-(1-(4-cyanobenzyl)piperidin-4-yloxy)-N-(1-(pyridin-4-ylmethyl)piperidin-4-yl)benzamide], greater than 6.00.
The value for `COC(=O)c1ccc(CN2CCC(NC(=O)c3ccc(OC4CCN(c5ccc(C(F)(F)F)cc5)CC4)c(F)c3)CC2)cc1` [Compound 33, methyl 4-((4-(3-fluoro-4-(1-(4-(trifluoromethyl)phenyl)piperidin-4-yloxy)benzamido)piperidin-1-yl)methyl)benzoate] was greater than 6.00; that for `O=C(NC1CCN(Cc2cccnc2)CC1)c1ccc(OC2CCN(c3ccc(C(F)(F)F)cc3)CC2)c(F)c1` [Compound 29, 3-fluoro-N-(1-(pyridin-3-ylmethyl)piperidin-4-yl)-4-(1-(4-(trifluoromethyl)phenyl)piperidin-4-yloxy)benzamide] was greater than 6.00.
The compound `O=C(NC1CCN(Cc2ccccc2)CC1)c1ccc(OC2CCN(Cc3ccc(OC(F)(F)F)cc3)CC2)c(F)c1` [Compound 57, N-(1-benzylpiperidin-4-yl)-3-fluoro-4-(1-(4-(trifluoromethoxy)benzyl)piperidin-4-yloxy)benzamide] had a pEC50 greater than 6.00.
The result for `O=C(NC1CCN(Cc2ccccn2)CC1)c1ccc(OC2CCN(c3ccc(C(F)(F)F)cc3)CC2)c(F)c1` [Compound 32, 3-fluoro-N-(1-(pyridin-2-ylmethyl)piperidin-4-yl)-4-(1-(4-(trifluoromethyl)phenyl)piperidin-4-yloxy)benzamide] reads greater than 6.00; that for `O=C(NC1CCN(Cc2ccc(Cl)cc2)CC1)c1ccc(OC2CCN(Cc3ccc(F)c(F)c3)CC2)c(F)c1` [Compound 71, N-(1-(4-chlorobenzyl)piperidin-4-yl)-4-(1-(3,4-difluorobenzyl)piperidin-4-yloxy)-3-fluorobenzamide], greater than 6.00; that for `O=C(NC1CCN(Cc2ccccc2)CC1)c1ccc(OC2CCN(c3ccc(C(F)(F)F)cc3)CC2)c(F)c1` [Compound 23, N-(1-benzylpiperidin-4-yl)-3-fluoro-4-(1-(4-(trifluoromethyl)phenyl)piperidin-4-yloxy)benzamide], greater than 6.00.
Consider `O=C(NC1CCN(Cc2ccc(F)cc2)CC1)c1ccc(OC2CCN(Cc3ccc(Cl)cc3)CC2)c(Cl)c1` [Compound 66, 3-chloro-4-(1-(4-chlorobenzyl)piperidin-4-yloxy)-N-(1-(4-fluorobenzyl)piperidin-4-yl)benzamide], for which the negative-log EC50 (pEC50) was greater than 6.00.
The value for `N#Cc1ccc(CN2CCC(Oc3ccc(C(=O)NC4CCN(Cc5ccccn5)CC4)cc3)CC2)cc1` [Compound 85, 4-(1-(4-cyanobenzyl)piperidin-4-yloxy)-N-(1-(pyridin-2-ylmethyl)piperidin-4-yl)benzamide] was greater than 6.00; that for `COc1cc(C(=O)NC2CCN(Cc3ccccc3)CC2)ccc1OC1CCN(S(C)(=O)=O)CC1` [Compound 9, N-(1-benzylpiperidin-4-yl)-3-methoxy-4-(1-(methylsulfonyl)piperidin-4-yloxy)benzamide] was 4.30 to 4.70; that for `CC(C)(C)OC(=O)N1CCN(C(=O)c2ccc(OC3CCN(Cc4ccccc4)CC3)cc2)CC1` [Compound 99, tert-butyl 4-(4-(1-benzylpiperidin-4-yloxy)benzoyl)piperazine-1-carboxylate] was 5.00 to 6.00.
As to `O=C(NC1CCN(Cc2ccc(F)cc2)CC1)c1ccc(OC2CCN(c3ccc(C(F)(F)F)cc3)CC2)c(F)c1` [Compound 27, 3-fluoro-N-(1-(4-fluorobenzyl)piperidin-4-yl)-4-(1-(4-(trifluoromethyl)phenyl)piperidin-4-yloxy)benzamide], the pEC50 is greater than 6.00.
The value for `O=C(NC1CCN(Cc2ccccc2)CC1)c1ccc(OC2CCN(c3ccc(C(F)(F)F)cc3)CC2)c(Cl)c1` [Compound 17, N-(1-benzylpiperidin-4-yl)-3-chloro-4-(1-(4-(trifluoromethyl)phenyl)piperidin-4-yloxy)benzamide] was greater than 6.00.
